Assay results published in patent US8084456B2, “Pyrazine-based tubulin inhibitors” (YM Biosciences Australia Pty Ltd, priority 2002, dated 2011).

Legend:
Tubulin = Tubulin assay (turbidometric microtubule assembly); assay type: biochemical; details: at 50 μM, absorbance at 340 nm, 37° C.
Method: Turbidometric assays of microtubule assembly were performed by incubating microtubule protein in cuvettes at 37° C. in a thermostatically controlled spectrophotometer measuring the change in absorbance at 340 nm over time. The microtubule protein was incubated with the each test compound at 0° C. and polymerisation was initiated by addition of 1 mM GTP, prior to heating to 37° C.

[1] = tested on: DU145 (Prostate Cancer) cells; assay: Cellular growth assay (MTT), DU145; assay type: cell-based; details: Homo sapiens, DU-145, 40 hr incubation, read-out: DU145 (inhibition of 50% of cellular growth)
Method: (§1) K562 (Chronic Myeloid Leukemia), PC3 (Prostate Cancer), and DU145 (Prostate Cancer) were obtained from the American Type Culture Collection (ATCC). K562 was grown in RPMI, with 10% FBS with Glutamx added. DU145 cells were cultured in DMED, with 10% FBS and Glutamx and MEM non-essential amino acids added. PC3 cells were grown in F12K medium, with 10% FBS and Glutamx and MEM non-essential amino acids added. All cells were grown at 37° C. in 5% CO2.

TelJak3 = TelJak3 (Homo sapiens, UniProt P52333); assay: Cellular growth assay (MTT), BaF3 TEL/JAK3 cells; assay type: cell-based; details: 40 hr incubation, read-out: TelJak3 (inhibition of 50% of cellular growth)
Sequence of TelJak3 (P52333 with tags, fused parts or gaps): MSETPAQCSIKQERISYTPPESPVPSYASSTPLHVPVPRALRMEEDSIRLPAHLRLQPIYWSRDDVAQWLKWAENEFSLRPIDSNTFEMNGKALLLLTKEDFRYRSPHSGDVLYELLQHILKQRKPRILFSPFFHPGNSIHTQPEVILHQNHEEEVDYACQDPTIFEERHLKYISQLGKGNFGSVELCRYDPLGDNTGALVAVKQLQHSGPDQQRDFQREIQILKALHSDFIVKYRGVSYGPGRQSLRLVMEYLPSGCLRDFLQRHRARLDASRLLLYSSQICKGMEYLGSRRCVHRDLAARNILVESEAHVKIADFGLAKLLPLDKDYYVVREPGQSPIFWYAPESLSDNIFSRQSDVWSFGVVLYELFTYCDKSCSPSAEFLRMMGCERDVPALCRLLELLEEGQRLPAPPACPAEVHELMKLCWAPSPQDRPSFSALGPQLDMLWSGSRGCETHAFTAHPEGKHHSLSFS

[2] = tested on: K562 (Chronic Myeloid Leukemia) cells; assay: Cellular growth assay (MTT), K562; assay type: cell-based; details: Homo sapiens, 40 hr incubation, read-out: K562 (inhibition of 50% of cellular growth)
Method: as §1

TelJak2 = TelJak2 (Homo sapiens, UniProt O60674); assay: Cellular growth assay (MTT), BaF3 TEL/JAK2 cells; assay type: cell-based; details: 40 hr incubation, read-out: TelJak2 (inhibition of 50% of cellular growth)
Sequence of TelJak2 (O60674 with tags, fused parts or gaps): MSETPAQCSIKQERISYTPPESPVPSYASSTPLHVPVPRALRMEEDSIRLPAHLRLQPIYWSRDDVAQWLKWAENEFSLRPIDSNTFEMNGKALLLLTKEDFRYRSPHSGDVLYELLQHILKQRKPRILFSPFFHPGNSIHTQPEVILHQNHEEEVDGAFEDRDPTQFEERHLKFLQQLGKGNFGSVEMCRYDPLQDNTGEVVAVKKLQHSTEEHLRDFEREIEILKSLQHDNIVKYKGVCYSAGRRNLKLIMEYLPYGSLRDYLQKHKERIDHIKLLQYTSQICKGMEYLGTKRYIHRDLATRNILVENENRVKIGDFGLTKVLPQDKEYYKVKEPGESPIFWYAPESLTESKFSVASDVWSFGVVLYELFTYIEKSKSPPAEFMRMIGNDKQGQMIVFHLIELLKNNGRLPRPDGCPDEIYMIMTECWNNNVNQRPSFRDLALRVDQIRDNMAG

[3] = tested on: PC3 (Prostate Cancer) cells; assay: Cellular growth assay (MTT), PC3; assay type: cell-based; details: Homo sapiens, PC-3, 40 hr incubation, read-out: PC3 (inhibition of 50% of cellular growth)
Method: as §1

| Structure (SMILES) | Tubulin (inhibition of tubulin polymerisation) (Tubulin) | IC50 [1] [µM] | IC50 (TelJak3) [µM] | IC50 [2] [µM] | IC50 (TelJak2) [µM] | IC50 [3] [µM] |
| --- | --- | --- | --- | --- | --- | --- |
| CCCC(Nc1cncc(-c2ccc(O)c(OC)c2)n1)c1cccc(OC)c1 (stereo not shown) | + (inhibited tubulin polymerisation by greater than 50% at 50 μM) | ≤ 20 | ≤ 20 | ≤ 20 | ≤ 20 | ≤ 20 |
| COc1cc(-c2cncc(NC(CC(C)C)c3ccccc3)n2)ccc1O (stereo not shown) | – | > 20 | ≤ 20 | ≤ 20 | ≤ 20 | > 20 |
| CCCC(Nc1cncc(-c2ccc(O)c(OC)c2)n1)c1ccc(O)cc1 (stereo not shown) | – | > 20 | ≤ 20 | > 20 | ≤ 20 | > 20 |
| CCCC(Nc1cncc(-c2ccc(O)c(OC)c2)n1)c1ccc(SC)cc1 (stereo not shown) | – | > 20 | ≤ 20 | ≤ 20 | ≤ 20 | > 20 |
| CCCC(Nc1cncc(-c2cc(OC)c(OC)c(OC)c2)n1)c1ccccc1 (stereo not shown) | – | ≤ 20 | ≤ 20 | ≤ 20 | ≤ 20 | > 20 |
| CCCC(Nc1cncc(-c2cccc(OC)c2)n1)c1ccccc1 (stereo not shown) | – | > 20 | ≤ 20 | ≤ 20 | ≤ 20 | > 20 |
| COc1cc(-c2cncc(NC(CCO)c3ccccc3)n2)ccc1O (stereo not shown) | – | > 20 | ≤ 20 | > 20 | ≤ 20 | > 20 |
| CCCC(Nc1cncc(-c2ccc(O)c(OC)c2)n1)c1ccc(N(CC)CC)cc1 (stereo not shown) | – | ≤ 20 | ≤ 20 | > 20 | ≤ 20 | > 20 |
| CCCC(Nc1cncc(-c2ccc(O)c(OC)c2)n1)c1ccc(OC)c(OC)c1 (stereo not shown) | – | ≤ 20 | ≤ 20 | ≤ 20 | ≤ 20 | > 20 |
| CCCC(Nc1cncc(-c2ccc(N)c(OC)c2)n1)c1ccc(F)cc1 (stereo not shown) | + (inhibited tubulin polymerisation by greater than 50% at 50 μM) | ≤ 20 | ≤ 20 | ≤ 20 | ≤ 20 | ≤ 20 |
| CCCC(Nc1cncc(-c2ccc(O)c(OC)c2)n1)c1cccc(N)c1 (stereo not shown) | + (inhibited tubulin polymerisation by greater than 50% at 50 μM) | > 20 | ≤ 20 | ≤ 20 | ≤ 20 | ≤ 20 |
| CCCC(Nc1cncc(-c2ccc(O)c(OC)c2)n1)c1cccc(NC(C)=O)c1 (stereo not shown) | – | > 20 | ≤ 20 | ≤ 20 | ≤ 20 | > 20 |
| CCCC(Nc1cncc(-c2ccc(O)c(OC)c2)n1)c1cccc(C#N)c1 (stereo not shown) | – | > 20 | ≤ 20 | ≤ 20 | ≤ 20 | ≤ 20 |
| CCCC(Nc1cncc(-c2ccc(NS(C)(=O)=O)c(OC)c2)n1)c1ccc(F)cc1 (stereo not shown) | – | > 20 | ≤ 20 | ≤ 20 | ≤ 20 | ≤ 20 |
| CCC[C@H](Nc1cncc(-c2ccc(O)c(OC)c2)n1)c1cccnc1 | + (inhibited tubulin polymerisation by greater than 50% at 50 μM) | ≤ 20 | ≤ 20 | ≤ 20 | ≤ 20 | ≤ 20 |
| CCCC(Nc1nc(-c2ccc(O)c(OC)c2)cnc1C)c1ccccc1 (stereo not shown) | + (inhibited tubulin polymerisation by greater than 50% at 50 μM) | ≤ 20 | ≤ 20 | ≤ 20 | ≤ 20 | ≤ 20 |
| CCCC(Nc1cncc(-c2ccc3c(c2)OCO3)n1)c1cccnc1 (stereo not shown) | – | > 20 | ≤ 20 | ≤ 20 | ≤ 20 | > 20 |
| CCCC(Nc1cncc(-c2ccc(O)c(OC)c2)n1)c1cccc([C@H](O)OCCOCC)c1 (stereo partly shown) | – | > 20 | ≤ 20 | ≤ 20 | ≤ 20 | > 20 |
| CCCOC(=O)c1cccc(C(CCC)Nc2cncc(-c3ccc(O)c(OC)c3)n2)c1 (stereo not shown) | – | > 20 | ≤ 20 | ≤ 20 | ≤ 20 | ≤ 20 |
| CCCC(Nc1cncc(-c2ccc(O)c(OC)c2)n1)c1cccc(F)c1F (stereo not shown) | – | > 20 | ≤ 20 | ≤ 20 | ≤ 20 | > 20 |
| CCCC(Nc1cncc(-c2ccc(O)c(OC)c2)n1)c1ccc(Cl)c(F)c1 (stereo not shown) | – | > 20 | ≤ 20 | ≤ 20 | ≤ 20 | > 20 |
| CCCC(Nc1cncc(-c2ccc(O)c(OCC)c2)n1)c1cccc(F)c1 (stereo not shown) | – | > 20 | ≤ 20 | ≤ 20 | ≤ 20 | ≤ 20 |
